Assays:
Type in all cases: cell-based
[1] = target: EP4 subtype of the human PGE2 receptor (Homo sapiens, UniProt P35408); test: cAMP antagonism test on the human EP4 receptor (HTRF cAMP detection); settings: selectivity towards hEP4, IC50 measured by cAMP antagonism test
In short: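 Competitive HTRF cAMP read-out (cAMP-d2 vs Eu-cryptate anti-cAMP antibody, 665/620 nm ratio) on lysed human EP4 cells. Compound (0.8 nM–16.5 μM) applied 20 min at RT before 60 min PGE2 challenge (3× solution 0.3 nM, IBMX present); 20 min lysis precedes reading.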

[2] = target: EP2 subtype of the human PGE2 receptor (Homo sapiens, UniProt P43116); test: cAMP antagonism test on the human EP2 receptor (HTRF cAMP detection); settings: hEP2 receptor, read-out: Antagonism hEP2 IC50
In short: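 Read-out is a competitive HTRF for cAMP: lysate cAMP displaces cAMP-d2 from Eu cryptate-labelled antibody, and antagonism raises the 665/620 nm ratio. Compound (0.8 nM–16.5 μM) added to EP2 cells 20 min at RT before 60 min PGE2 challenge (3× stock 1.5 nM) with IBMX, followed by 20 min lysis.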

human PGD receptor = target: T1, human PGD receptor (Homo sapiens, UniProt Q13258); test: cAMP antagonism test on the human prostaglandin D receptor (HTRF cAMP detection); settings: selectivity towards hDP, IC50 measured by cAMP antagonism test
T1 sequence (Q13258 1-359): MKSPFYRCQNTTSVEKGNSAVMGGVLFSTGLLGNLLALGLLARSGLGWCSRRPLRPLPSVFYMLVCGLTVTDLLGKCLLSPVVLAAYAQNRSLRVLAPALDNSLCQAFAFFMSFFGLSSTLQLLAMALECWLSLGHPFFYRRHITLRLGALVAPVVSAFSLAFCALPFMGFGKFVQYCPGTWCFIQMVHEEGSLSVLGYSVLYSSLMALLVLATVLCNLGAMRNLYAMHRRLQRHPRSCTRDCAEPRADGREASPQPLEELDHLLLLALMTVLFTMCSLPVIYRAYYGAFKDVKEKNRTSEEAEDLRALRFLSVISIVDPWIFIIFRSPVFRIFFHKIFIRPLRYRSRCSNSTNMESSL
In short: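 HTRF competition read-out (665/620 nm ratio ×10000), where higher FRET means less cAMP, i.e. antagonism. Compounds (0.8 nM–16.5 μM) were preincubated 20 min at RT with cells and cAMP-d2, PGD2 (3× solution, 6 nM) in IBMX-containing PBS added for 30 min at RT, then cells lysed 20 min.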

Chain of EP4 subtype of the human PGE2 receptor (P35408 whole entry): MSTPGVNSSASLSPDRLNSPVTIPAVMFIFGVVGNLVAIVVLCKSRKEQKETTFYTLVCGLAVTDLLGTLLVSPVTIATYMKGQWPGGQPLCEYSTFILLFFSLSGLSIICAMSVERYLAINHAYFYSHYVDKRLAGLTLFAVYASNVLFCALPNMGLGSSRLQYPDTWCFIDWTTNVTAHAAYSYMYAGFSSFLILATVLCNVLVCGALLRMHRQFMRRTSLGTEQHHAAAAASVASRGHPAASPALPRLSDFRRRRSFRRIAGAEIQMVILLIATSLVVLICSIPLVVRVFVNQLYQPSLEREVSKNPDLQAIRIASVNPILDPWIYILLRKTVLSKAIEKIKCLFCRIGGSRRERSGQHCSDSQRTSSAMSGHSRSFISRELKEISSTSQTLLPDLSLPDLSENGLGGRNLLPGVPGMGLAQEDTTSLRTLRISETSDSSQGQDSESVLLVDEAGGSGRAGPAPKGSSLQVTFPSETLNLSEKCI
Chain of EP2 subtype of the human PGE2 receptor (P43116 whole entry): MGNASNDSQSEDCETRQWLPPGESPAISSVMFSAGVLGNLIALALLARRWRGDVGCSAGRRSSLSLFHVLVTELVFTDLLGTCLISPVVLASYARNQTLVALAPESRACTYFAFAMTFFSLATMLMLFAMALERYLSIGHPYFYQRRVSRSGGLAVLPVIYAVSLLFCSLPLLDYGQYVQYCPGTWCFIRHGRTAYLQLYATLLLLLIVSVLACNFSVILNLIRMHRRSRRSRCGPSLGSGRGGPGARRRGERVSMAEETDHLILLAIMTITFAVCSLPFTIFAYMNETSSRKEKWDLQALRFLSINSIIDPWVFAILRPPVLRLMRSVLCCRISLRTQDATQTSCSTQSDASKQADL

Selectivity hEP2/hEP4 [1] | IC50 [2] [µM] | Selectivity hEP2/hDP (human PGD receptor) | Compound
xxx (xxx > 100) | 0.0683 | xxx (xxx > 100) | COCCNC(=O)c1cc2cn(CC3CN(C(=O)c4ccc(Cl)cc4)C3)nc2cc1C [Example 178, 2-{[1-(4-chlorobenzoyl)azetidin-3-yl]methyl}-N-(2-methoxyethyl)-6-methyl-2H-indazol-5-carboxamide]
xxx (xxx > 100) | 0.149 | xxx (xxx > 100) | Cc1cc2nn(CC3CN(C(=O)c4ccc(S(F)(F)(F)(F)F)cc4)C3)cc2cc1C(=O)NCC(F)(F)F [Example 188, 6-methyl-2-({1-[4-(pentafluoro-λ^6-sulphanyl)benzoyl]azetidin-3-yl}methyl)-N-(2,2,2-trifluoroethyl)-2H-indazol-5-carboxamide]
xx (xx: 10-100) | 0.758 | xx (xx: 10-100) | Cc1c(C(=O)NCCN2CCOCC2)ccc2nn(CC3CCN(C(=O)c4ccc(OC(F)(F)F)cc4)CC3)cc12 [Example 59, 4-methyl-N-(2-morpholinoethyl)-2-({1-[4-(trifluoromethoxy)benzoyl]piperidin-4-yl}methyl)-2H-indazol-5-carboxamide]
xxx (xxx > 100) | 0.155 | xxx (xxx > 100) | Cc1c(C(=O)NCC#N)ccc2nn(CC3CCN(C(=O)c4ccc(Cl)cc4)CC3)cc12 [Example 401, 2-{[1-(4-chlorobenzoyl)piperidin-4-yl]methyl}-N-(cyanomethyl)-4-methyl-2H-indazol-5-carboxamide]
xxx (xxx > 100) | 0.0306 | xxx (xxx > 100) | Cc1c(C(=O)NCC(F)(F)F)ccc2nn(CC3CCN(C(=O)c4ccc(Oc5cccc(F)c5)cc4)CC3)cc12 [Example 307, 2-({1-[4-(3-fluorophenoxy)benzoyl]piperidin-4-yl}methyl)-4-methyl-N-(2,2,2-trifluoroethyl)-2H-indazol-5-carboxamide]
xxx (xxx > 100) | 0.0649 | xxx (xxx > 100) | COCCNC(=O)c1ccc2nn(CC3CN(C(=O)c4ccc(Cl)cc4)C3)cc2c1OC [Example 214, 2-{[1-(4-chlorobenzoyl)azetidin-3-yl]methyl}-4-methoxy-N-(2-methoxyethyl)-2H-indazol-5-carboxamide]
xxx (xxx > 100) | 0.0575 | xxx (xxx > 100) | O=C(NCCOCC1CC1)c1ccc2nn(CC3CCN(C(=O)c4ccc(Oc5ccc(F)cc5)cc4)CC3)cc2c1OCC(F)(F)F [Example 236, N-[2-(cyclopropylmethoxy)ethyl]-2-({1-[4-(4-fluorophenoxy)benzoyl]piperidin-4-yl}methyl)-4-(2,2,2-trifluoroethoxy)-2H-indazol-5-carboxamide]
xxx (xxx > 100) | 0.00562 | xxx (xxx > 100) | COCCNC(=O)c1ccc2nn(C[C@H]3CCN(C(=O)c4ccc(Oc5ccc(C(F)(F)F)cc5)cc4)C3)cc2c1C [Example 224, N-(2-methoxyethyl)-4-methyl-2-{[(S)-1-{4-[4-(trifluoromethyl)phenoxy]benzoyl}pyrrolidin-3-yl]methyl}-2H-indazol-5-carboxamide]
xxx (xxx > 100) | 0.00388 | xxx (xxx > 100) | COCCNC(=O)c1ccc2nn(CC3CN(C(=O)c4cc5cc(Cl)ccc5n4C)C3)cc2c1C [Example 171, 2-({1-[(5-chloro-1-methyl-1H-indol-2-yl)carbonyl]azetidin-3-yl}methyl)-N-(2-methoxyethyl)-4-methyl-2H-indazol-5-carboxamide]
xxx (xxx > 100) | 0.0058 | xxx (xxx > 100) | COCCNC(=O)c1ccc2nn(CC3CCN(C(=O)c4ccc(-c5ccc(OC)nc5)cc4)CC3)cc2c1C [Example 375, N-(2-methoxyethyl)-2-({1-[4-(6-methoxypyridin-3-yl)benzoyl]piperidin-4-yl}-methyl)-4-methyl-2H-indazol-5-carboxamide]
xxx (xxx > 100) | 0.0307 | xxx (xxx > 100) | Cc1cc2nn(CC3CN(C(=O)c4ccc(S(F)(F)(F)(F)F)cc4)C3)cc2cc1C(=O)NCCN1CCOCC1 [Example 280, 6-methyl-N-(2-morpholinoethyl)-2-({1-[4-(pentafluoro-λ^6-sulphanyl)benzoyl]-azetidin-3-yl}methyl)-2H-indazol-5-carboxamide]
xxx (xxx > 100) | 0.134 | xxx (xxx > 100) | COCCNC(=O)c1ccc2nn(CC3CCN(C(=O)c4ccc(-n5ccnc5)cc4)CC3)cc2c1C [Example 34, 2-({1-[4-(1H-imidazol-1-yl)-benzoyl]piperidin-4-yl}methyl)-N-(2-methoxyethyl)-4-methyl-2H-indazol-5-carboxamide]
xx (xx: 10-100) | 0.674 | xx (xx: 10-100) | Cc1c(C(=O)NCCN2CCOCC2)ccc2nn(CC3CCN(C(=O)c4ccc(Cl)cc4)CC3)cc12 [Example 62, 2-{[1-(4-chlorobenzoyl)piperidin-4-yl]methyl}-4-methyl-N-(2-morpholinoethyl)-2H-indazol-5-carboxamide]
xxx (xxx > 100) | 0.0841 | xxx (xxx > 100) | Cc1c(C(=O)NCC(F)(F)F)ccc2nn(CC3CCN(C(=O)c4ccc(Oc5ccc(Cl)cn5)cc4)CC3)cc12 [Example 311, 2-[(1-{4-[(5-chloropyridin-2-yl)oxy]benzoyl}piperidin-4-yl)methyl]-4-methyl-N-(2,2,2-trifluoroethyl)-2H-indazol-5-carboxamide]
xxx (xxx > 100) | 0.0635 | xxx (xxx > 100) | Cc1c(C(=O)NCC2CCO2)ccc2nn(CC3CCN(C(=O)c4ccc(Cl)cc4)CC3)cc12 (racemic) [Example 412, (+/−)-2-{[1-(4-chlorobenzoyl)piperidin-4-yl]methyl}-4-methyl-N-(oxetan-2-ylmethyl)-2H-indazol-5-carboxamide]
xx (xx: 10-100) | 0.471 | xx (xx: 10-100) | Cc1c(C(=O)NCCN2CCOCC2)ccc2nn(CC3CN(C(=O)c4ccc(Cl)cc4)C3)cc12 [Example 128, 2-{[1-(4-chlorobenzoyl)azetidin-3-yl]methyl}-4-methyl-N-(2-morpholinoethyl)-2H-indazol-5-carboxamide]
xxx (xxx > 100) | 0.0165 | xxx (xxx > 100) | Cc1c(C(=O)NCC2COCCO2)ccc2nn(CC3CCN(C(=O)c4ccc(-c5ccc(F)cc5)cc4)CC3)cc12 (racemic) [Example 411, (+/−)-N-(1,4-dioxan-2-ylmethyl)-2-({1-[(4′-fluorobiphenyl-4-yl)carbonyl]-piperidin-4-yl}methyl)-4-methyl-2H-indazol-5-carboxamide]
xxx (xxx > 100) | 0.0413 | xxx (xxx > 100) | COCCNC(=O)c1cc2cn(CC3CCN(C(=O)c4ccc(C(F)(F)F)cc4F)CC3)nc2cc1C [Example 206, 2-({1-[2-fluoro-4-(trifluoromethyl)benzoyl]piperidin-4-yl}methyl)-N-(2-methoxy-ethyl)-6-methyl-2H-indazol-5-carboxamide]
xx (xx: 10-100) | 0.273 | xx (xx: 10-100) | COCCNC(=O)c1ccc2nn(C[C@@H]3CCN(C(=O)c4ccc(S(F)(F)(F)(F)F)cc4)C3)cc2c1C [Example 219, N-(2-methoxyethyl)-4-methyl-2-({(3R)-1-[4-(pentafluoro-λ^6-sulphanyl)benzoyl]-pyrrolidin-3-yl}methyl)-2H-indazol-5-carboxamide]
